Assay results taken from patent US20080274543A1, “Neuronal Cell Propagation Using Rotating Wall Vessel” (THE ADMINISTRATORS OF THE TULANE EDUCATIONAL FUND, priority 2007, published 2008).
Several values for one entry are separate records, joined by “and”; a condition that tells them apart may be missing. Equal entries are not always repeated.

Test system: SY cells
Experiment: TUNEL apoptosis assay, TG-stimulated SY cells in 3-D versus 2-D culture
Format: cell-based, human
Protocol: SY cells (1×10^6) cultured in 2-D or 3-D were incubated with or without 10 nM TG. The 2-D and 3-D cells were harvested using trypsin, washed in PBS, and fixed for 5-10 min in 2% PFA. Prior to fixation, the 3-D-cultured cells treated inside of the RWV were separated from the beads using a 40-μm cell strainer (Becton Dickinson). The fixed cells were permeabilized in PBS/FSG/Triton and blocked with 10% NGS. Apoptosis was evaluated using the Apoptag TUNEL assay kit (Chemicon). The results were analyzed using a Leica TCS SP2 confocal microscope as described above. Cell morphology consistent with apoptosis including cell shrinkage, nuclear condensation and membrane blebbing were assessed along with the fluorescein staining for TUNEL. The number of apoptotic cells counted was divided by the total (500 minimum) number of cells counted. This protocol was also followed for evaluation of apoptosis in PC12 cells. An increased drug tolerance, 30-nM TG was used in the PC12 assay. 3-D-cultured PC12 samples were stimulated for 5 days after removal from the RWV to multi-well dishes.
Thapsigargin (TG) is known to induce apoptosis through the passive release of Ca^2+ from ER stores. These events lead to subsequent increases in cytosolic Ca^2+, stressing both the ER and the mitochondria (Elyaman et al., 2002; Nechushtan A, Smith C L, Lamensdorf I, Yoon S H, Youle R J. Bax and Bak coalesce into novel mitochondria-associated clusters during apoptosis. The Journal of cell biology, 2001; 153: 1265-76; Nguyen H N, Wang C, Perry D C. Depletion of intracellular calcium stores is toxic to SH-SY5Y neuronal cells. Brain Res, 2002; 924: 159-66; Scorrano et al., 2003; Zong W X, Li C, Hatzivassiliou G, Lindsten T, Yu Q C, Yuan J, Thompson C B. Bax and Bak can localize to the endoplasmic reticulum to initiate apoptosis. The Journal of cell biology, 2003; 162: 59-69). In order to determine inherent differences in apoptosis between the 3-D and 2-D cultured cells, the terminal uridine deoxynucleotidyl transferase dUTP nick end labeling (TUNEL) assay was used. […]

Structure (SMILES): C/C=C(/C)C(=O)O[C@H]1C(C)=C2[C@H]([C@@H]1OC(=O)CCCCCCC)[C@@](C)(OC(C)=O)C[C@H](OC(=O)CCC)[C@@]1(O)[C@H]2OC(=O)[C@@]1(C)O [TG, Thapsigargin]
- thapsigargin-induced apoptosis in 3D cultured SH-SY5Y cells versus monolayer (3D versus ML culture): notably enhanced
- degree of apoptosis in TG-stimulated versus control cells at 24 h (24 h, TG 10 nM): noticeable difference in the degree of apoptosis occurring in stimulated versus control cells was found only in the 3-D(RWV) cells
- increase in TUNEL-positive (apoptotic) SY cells, 3-D versus 2-D culture, when treated with TG (TG 10 nM, 5 days, 3-D+TG versus 2-D+TG): 4 to 7 fold and 4- to 7 fold
